Measurements as given in patent US6444617B1, “Fused-heterocycle dicarboxylic acid diamide derivatives or salts thereof, herbicide and usage thereof” (Nihon Nohyaku Co., Ltd., priority 1998, dated 2002).

Legend:
Format in all cases: in vivo
[1] = system: barnyard grass (Echinochloa crus-galli Beauv.); assay: Test Example 1: herbicidal effect on paddy field weeds before emergence; details: Dosage 5 kg/ha
Experimental: (§1) Test for Herbicidal Effect on Paddy Field Weeds Before Emergence Soil was filled into 1/10000 are pots and brought into a state of paddy field, in which seeds of barnyard grass (Echinochloa crus-galli Beauv.) and bulrush (Scirpus juncoides Roxb.) were made to be before germination. The soil in the pots were treated with a solution containing a predetermined dosage of a chemical agent comprising a compound of the present invention listed in Tables 1 to 14. Twenty one days after the treatment, the herbicidal effect was investigated, the result was compared with that in untreated plot to calculate the weed-controlling rate, and the herbicidal effect was judged according to the following criterion: […]

[2] = system: bulrush (Scirpus juncoides Roxb.); assay: as above; details: Dosage 5 kg/ha
Experimental: as §1

wheat (Wh) = assay: Test Example 3: phytotoxicity to upland crop plants, treatment before emergence; details: dosage 5 kg/ha
Experimental: (§2) Herbicidal Effect on Upland Weeds Before Emergence […] Then, a liquid preparation of an agent comprising a prescribed concentration of a compound of the present invention (the compounds listed in Tables 1-14) as active ingredient was sprayed. Fourteen days after the treatment, the herbicidal effect was investigated, from which weed-killing rate was calculated in the same manner as in Test Example 1, and the herbicidal effect was judged. At the same time, phytotoxicity to soybean plant and wheat was investigated and judged according to the criterion mentioned below.

soybean plant (So) = assay: as above; details: dosage 5 kg/ha
Experimental: as §2

[3] = system: barnyard grass (Echinochloa crus-galli Beauv.); assay: Test Example 2: herbicidal effect on paddy field weeds after emergence; details: Dosage 5 kg/ha; one-leaved stage; 21 days after treatment
Experimental: (§3) Test for Herbicidal Effect on Paddy Field Weeds After Emergence. Soil was filled into 1/10000 are pots and brought into a state of paddy field, in which seeds of barnyard grass (Echinochloa crus-galli Beauv.), bulrush (Scirpus juncoides Roxb.) and monochoria (Monochoria vaginalis Presl) were made to reach one-leaved stage. The soil in the pots were treated with a solution containing a predetermined dosage of a chemical agent comprising a compound of the present invention listed in Tables 1 to 14. Twenty one days after the treatment, the herbicidal effect was investigated and the result was compared with that in untreated plot to calculate the weed-controlling rate, and the herbicidal effect was judged according to the same criterion as in Test Example 1.

[4] = system: monochoria (Monochoria vaginalis Presl); assay: as above; details: Dosage 5 kg/ha; one-leaved stage; 21 days after treatment
Experimental: as §3

[5] = system: bulrush (Scirpus juncoides Roxb.); assay: as above; details: Dosage 5 kg/ha; one-leaved stage; 21 days after treatment
Experimental: as §3

[6] = system: velvetleaf (Abutilon theophtasti L.), At; assay: Test Example 4: herbicidal effect on upland weeds after emergence; details: dosage 5 kg/ha; sprayed after emergence; judged 14 days after treatment
Source text: (§4) Herbicidal Effect on Upland Weeds After Emergence Polyethylene-made vats having a size of 10 cm (length)×20 cm (width)×5 cm (height) were filled with soil, sown with seeds of the following noxious upland weeds and with seeds of soybean plant and wheat as upland crop plants, and then covered with soil. The plants were made to grow up until they reached the leaf-stages mentioned below, after which an agent comprising a prescribed concentration of a compound of the present invention (listed in Tables 1 to 14) as active ingredient was sprayed. Fourteen days after the treatment, the herbicidal effect was investigated, from which weed-killing rate was calculated in the same manner as in Test Example 1 and the results were judged. […] Sample weeds, their leaf stages, and leaf stages of soybean plant and wheat were as follows: [table]

[7] = system: cocklebur (Xanthium strumarium L.), Xs; assay: as above; details: dosage 5 kg/ha; sprayed after emergence; judged 14 days after treatment
Source text: as §4

[8] = system: forxtail grass (Alopecurus aequalis var. amurensis Ohwi), Am; assay: as above; details: dosage 5 kg/ha; sprayed after emergence; judged 14 days after treatment
Source text: as §4

[9] = system: bird's eye speedwell (Veronica persica Poir.), Vp; assay: as above; details: dosage 5 kg/ha; sprayed after emergence; judged 14 days after treatment
Source text: as §4

[10] = system: cleavers (Galium aparine L.), Ga; assay: as above; details: dosage 5 kg/ha; sprayed after emergence; judged 14 days after treatment
Source text: as §4

[11] = system: barnyard grass (Echinochloa crus-galli Beauv.), Ec; assay: as above; details: dosage 5 kg/ha; sprayed after emergence; judged 14 days after treatment
Source text: as §4

wheat = assay: Test Example 4: phytotoxicity to upland crop plants, treatment after emergence; details: dosage 5 kg/ha, sprayed after emergence, judged 14 days after treatment
Source text: as §4

soybean plant = assay: as above; details: dosage 5 kg/ha, sprayed after emergence, judged 14 days after treatment
Source text: as §4

[12] = system: velvetleaf (Abutilon theophtasti L.), At; assay: Test Example 3: herbicidal effect on upland weeds before emergence; details: dosage 5 kg/ha
Experimental: as §2, with “judged.” for “judged. At the same time, phytotoxicity to soybean plant and wheat was investigated and judged according to the criterion mentioned below.”

[13] = system: cocklebur (Xanthium strumarium L.), Xs; assay: as above; details: dosage 5 kg/ha
Experimental: as §2, with “judged.” for “judged. At the same time, phytotoxicity to soybean plant and wheat was investigated and judged according to the criterion mentioned below.”

[14] = system: forxtail grass (Alopecurus aequalis var. amurensis Ohwi), Am; assay: as above; details: foxtail grass, dosage 5 kg/ha
Experimental: as §2, with “judged.” for “judged. At the same time, phytotoxicity to soybean plant and wheat was investigated and judged according to the criterion mentioned below.”

[15] = system: bird's eye speedwell (Veronica persica Poir.), Vp; assay: as above; details: dosage 5 kg/ha
Experimental: as §2, with “judged.” for “judged. At the same time, phytotoxicity to soybean plant and wheat was investigated and judged according to the criterion mentioned below.”

[16] = system: cleavers (Galium aparine L.), Ga; assay: as above; details: dosage 5 kg/ha
Experimental: as §2, with “judged.” for “judged. At the same time, phytotoxicity to soybean plant and wheat was investigated and judged according to the criterion mentioned below.”

[17] = system: barnyard grass (Echinochloa crus-galli Beauv.), Ec; assay: as above; details: dosage 5 kg/ha
Experimental: as §2, with “judged.” for “judged. At the same time, phytotoxicity to soybean plant and wheat was investigated and judged according to the criterion mentioned below.”

Compound	Pre-emergence treatment Barnyard grass (herbicidal effect) [1]	Pre-emergence treatment Bulrush (herbicidal effect) [2]	Phytotoxicity Wh (wheat (Wh))	Phytotoxicity So (soybean plant (So))	Post-emergence treatment Barnyard grass (herbicidal effect) [3]	Post-emergence treatment Monochoria (herbicidal effect) [4]	Post-emergence treatment Bulrush (herbicidal effect) [5]	Herbicidal effect At [6]	Herbicidal effect Xs [7]	Herbicidal effect Am [8]	Herbicidal effect Vp [9]	Herbicidal effect Ga [10]	Herbicidal effect Ec [11]	Phytotoxicity Wh (wheat)	Phytotoxicity So (soybean plant)	Herbicidal effect At [12]	Herbicidal effect Xs [13]	Herbicidal effect Am [14]	Herbicidal effect Vp [15]	Herbicidal effect Ga [16]	also measured
CCc1ccc(Cl)c(CC)c1NC(=O)c1cc2ccccc2nc1C(=O)NC1CCCC1 [359-6]	5 (Weed-killing rate is 100%.)	5 (Weed-killing rate is 100%.)	0 (Crop-killing rate is 0-20% (No Phytotoxicity).)	0 (Crop-killing rate is 0-20% (No Phytotoxicity).)	5 (Weed-killing rate is 100%.)	5 (Weed-killing rate is 100%.)	5 (Weed-killing rate is 100%.)	5 (Weed-killing rate is 100%.)	5 (Weed-killing rate is 100%.)	5 (Weed-killing rate is 100%.)	5 (Weed-killing rate is 100%.)	5 (Weed-killing rate is 100%.)	5 (Weed-killing rate is 100%.)	2 (Crop-killing rate is 40-69%.)	3 (Crop-killing rate is 70-89%.)	5 (Weed-killing rate is 100%.)	5 (Weed-killing rate is 100%.)	5 (Weed-killing rate is 100%.)	5 (Weed-killing rate is 100%.)	5 (Weed-killing rate is 100%.)	Herbicidal effect Ec [17]: 5 (Weed-killing rate is 100%.)
CCCNC(=O)c1nc2cc(F)ccc2cc1C(=O)Nc1c(CC)ccc(Cl)c1CC [Compound No. 158, 3-(3-Chloro-2,6-diethylphenyl)-aminocarbonyl-7-fluoro-2-quinolinecarboxylic Acid n-Propylamide]	5 (Weed-killing rate is 100%.)	5 (Weed-killing rate is 100%.)	4 (Crop-killing rate is 90-99%.)	1 (Crop-killing rate is 1-39%.)	5 (Weed-killing rate is 100%.)	5 (Weed-killing rate is 100%.)	5 (Weed-killing rate is 100%.)	5 (Weed-killing rate is 100%.)	4 (Weed-killing rate is 90-99%.)	4 (Weed-killing rate is 90-99%.)	5 (Weed-killing rate is 100%.)	5 (Weed-killing rate is 100%.)	5 (Weed-killing rate is 100%.)	4 (Crop-killing rate is 90-99%.)	2 (Crop-killing rate is 40-69%.)	5 (Weed-killing rate is 100%.)	4 (Weed-killing rate is 90-99%.)	4 (Weed-killing rate is 90-99%.)	5 (Weed-killing rate is 100%.)	5 (Weed-killing rate is 100%.)	Herbicidal effect Ec [17]: 5 (Weed-killing rate is 100%.)
CCNC(=O)c1nc2ncccc2cc1C(=O)Nc1c(CC)ccc(Cl)c1CC [Compound No. 360, 3-(3-Chloro-2,6-diethylphenyl)-aminocarbonyl-1,8-naphthylidine-2-carboxylic Acid Ethylamide]	5 (Weed-killing rate is 100%.)	5 (Weed-killing rate is 100%.)	4 (Crop-killing rate is 90-99%.)	3 (Crop-killing rate is 70-89%.)	5 (Weed-killing rate is 100%.)	5 (Weed-killing rate is 100%.)	5 (Weed-killing rate is 100%.)	5 (Weed-killing rate is 100%.)	5 (Weed-killing rate is 100%.)	5 (Weed-killing rate is 100%.)	5 (Weed-killing rate is 100%.)	4 (Weed-killing rate is 90-99%.)	5 (Weed-killing rate is 100%.)	4 (Crop-killing rate is 90-99%.)	3 (Crop-killing rate is 70-89%.)	5 (Weed-killing rate is 100%.)	5 (Weed-killing rate is 100%.)	5 (Weed-killing rate is 100%.)	5 (Weed-killing rate is 100%.)	5 (Weed-killing rate is 100%.)	Herbicidal effect Ec [17]: 5 (Weed-killing rate is 100%.)
CCCNC(=O)c1nc2c(cc1C(=O)Nc1c(CC)ccc(Cl)c1CC)COCC2 [Compound No. 462, 3-(3-Chloro-2,6-diethylphenyl)-aminocarbonyl-7,8-dihydro-5H-pyrano[4,3-b]pyridine-2-carboxylic Acid n-Propylamide]	5 (Weed-killing rate is 100%.)	5 (Weed-killing rate is 100%.)	5 (Crop-killing rate is 100%.)	5 (Crop-killing rate is 100%.)	5 (Weed-killing rate is 100%.)	5 (Weed-killing rate is 100%.)	5 (Weed-killing rate is 100%.)	5 (Weed-killing rate is 100%.)	5 (Weed-killing rate is 100%.)	5 (Weed-killing rate is 100%.)	5 (Weed-killing rate is 100%.)	5 (Weed-killing rate is 100%.)	5 (Weed-killing rate is 100%.)	5 (Crop-killing rate is 100%.)	5 (Crop-killing rate is 100%.)	5 (Weed-killing rate is 100%.)	5 (Weed-killing rate is 100%.)	5 (Weed-killing rate is 100%.)	5 (Weed-killing rate is 100%.)	5 (Weed-killing rate is 100%.)	Herbicidal effect Ec [17]: 5 (Weed-killing rate is 100%.)
